Results reported in patent publication US7906488B2, “Sphingolipids in treatment and prevention of steatosis and of steatosis or of hepatotoxicity and its sequelae” (Nederlandse Organisatie Voor …, priority 2004, dated 2011).

System: APOE*3Leiden mice
Assay: Plasma parameters, body and liver weight after 1% PS-containing Western-type diet
Assay type: in vivo
Description: Sphingolipids: The three sphingolipids that represent the most abundant natural complex sphingolipid classes and the three of the simplest natural sphingolipids, the sphingoid bases that can be formed by enzymatic breakdown of complex sphingolipids in the intestine were used. Sphingomyelin (mainly N-palmitoyl-sphingosine-1-phosphocholine) from egg was obtained from Larodan Fine Chemicals (Stockholm, Sweden). Yeast-derived (semi)synthetic ceramide III (N-stearoyl-phytosphingosine), cerebroside (N-stearoyl-phytosphingosine-1-glucose) and phytosphingosine (PS) were from Cosmoferm BV (Delft, the Netherlands). Sphinganine and sphingosine were from Avanti Polar Lipids (Albaster, Ala.). Animals and diets: Heterozygous female APOE*3Leiden transgenic mice (Van Vlijmen et al. 1994. J. Clin. Invest 93:1403-1410.) (6 months old) were fed a Western-type diet (Hope Farms, Woerden, the Netherlands) containing 15% cocoa butter, 0.25% cholesterol, 1% corn oil, 40.5% sucrose, 20% acid casein, 10% corn starch and 5.95% cellulose (all w/w) for 5 weeks. The mice were allowed free access to food and water. Body weight and food intake were monitored weekly. In the first experiment (FIG. 2), the mice were randomized after these 5 weeks into 7 groups (n=6), based on plasma cholesterol, triglycerides, and body weight. Subsequently, the mice were fed for three weeks the same diet without or with 0.1% (w/w) phytosphingosine (PS), sphingosine, sphinganine, cerebroside, ceramide III, or sphingomyelin. Then, the sphingolipid dose was increased to 0.2% (w/w) for 3 weeks and finally to 0.4% (w/w) for 3 weeks. At randomization, and at 3, 6, and 9 weeks, tail vein blood samples were obtained after a 4 h-fast. In all subsequent experiments, female APOE*3Leiden transgenic mice (6 months old) were fed the Western-type diet for 5 weeks, and randomized as described. Subsequently, they were fed the Western-type diet for 5 weeks, or this diet supplemented with 1.0% (w/w) of PS, before being subjected to experimentation.
Plasma parameters: Tail blood samples were collected in EDTA-coated cups, or in paraoxon-coated capillaries to prevent lipolysis as described in Zambon et al. 1993 (Zambon et al. 1993. J. Lipid Res. 34:1021-1028). Plasma lipid parameters were determined using commercial kits for total cholesterol (C) Chol R1 from Roche Diagnostics, Mannheim, Germany), non-esterified free fatty acids (FFA) (NEFA-C; Wako chemicals, Neuss, Germany), Total triglycerides (TG) (Triglyceride GPO-Trinder; Sigma, St. Louis, Mo.), β-hydroxybutyrate (β-HB; Sigma) and ALAT (Reflotron GPT; Roche). Serum amyloid A (SAA) was measured by ELISA (Biosource, Nivelles, Belgium) and fibrinogen by sandwich ELISA, as described in Koopman et al., 2005 (Koopman et al. 2005. Fibrinol Proteol 11:19). For lipoproteins fractionation, groupwise-pooled plasma was size-fractionated by fast protein liquid chromatography (FPLC) on a Superose 6 column (Äkta; Amersham Pharmacia Biotech, Uppsala, Sweden). Fractions were assayed for total C and TG as described. Hepatic VLDL-TG production: The rate of hepatic VLDL-TG production, de novo apoB secretion, and VLDL composition were determined in overnight-fasted mice. Mice were anaesthetized with vetranquil/fentanyl/midazolam i.p., and injected i.v. with 0.1 ml PBS containing 100 μCi Tran^35S-label™ (ICN Biomedicals, Irvine, Calif.) to measure the de novo apoB synthesis. After 30 min, the animals received a Triton WR1339 injection (Tyloxapol, Sigma; 500 mg/kg body weight in 100 μl saline) to prevent systemic lipolysis of newly-secreted hepatic VLDL-TG (Aalto-Setala et al. 1992. J. Clin. Invest 90:1889-1900.27) Blood samples were drawn at 0, 15, 30, 60, and 90 min after Triton WR1339 injection and plasma TG concentrations were determined. After 90 min, the animals were sacrificed and blood was collected by retro-orbital bleeding for isolation of VLDL. […]

[1] = 1% PS in Western-type diet, 5 weeks
[2] = 1% PS in Western-type diet, 5 weeks, 4 h-fasted

In the case of CCCCCCCCCCCCCC[C@@H](O)[C@@H](O)[C@@H](N)CO [PS, phytosphingosine], the “Effects on body weight or food intake” value (1% (w/w) PS in Western-type diet, five weeks) is reported as “No effects”, the “Body weight, % Δ vs control” value [1] is reported as “n.s” and the “HDL cholesterol (FPLC lipoprotein profile of pooled plasma)” value [1] is reported as “did not change”. The “Liver weight, % Δ vs control” value [1] was −22%, the “Plasma free fatty acids, % Δ vs control” value [1] was −36% and the “Plasma total cholesterol, % Δ vs control” value [1] was −57%. The “Plasma triglycerides, % Δ vs control” value [1] was −58%, the “Plasma β-hydroxybutyrate, % Δ vs control” value [1] was “n.s” and the Body weight [2] was 22.6 ± 1.0 g. The Liver weight [2] was 1.05 ± 0.08 g, the “Plasma free fatty acids” value [2] was 1.06 ± 0.14 mmol/L and the Plasma total cholesterol [2] was 6.1 ± 1.1 mmol/L. The Plasma triglycerides [2] was 1.19 ± 0.39 mmol/L and the “Plasma β-hydroxybutyrate” value [2] was 0.49 ± 0.39 mmol/L.
